# How the values were obtained:
# [1] = tested on: hTERT; test: hTERT protein levels by immunoblotting in H1299 cells; assay type: cell-based, human
# Protocol: FIG. 1. hTERT is sensitive to the Hsp90 antagonist geldanamycin. (A) Down-regulation of ectopically expressed hTERT by GA. H1299 cells transfected with Flag-hTERT or Flag-TRF1 were treated with 0.1 μM GA for the indicated times. Lysates were resolved on 8% SDS-PAGE and analyzed by immunoblotting using an anti-Flag antibody probe. Cells were pretreated with 10 μM MG132 or E-64 for 2 hours, either alone or before treatment with GA. (B) Concentration dependence of GA on hTERT. H1299 cells transfected with Flag-hTERT or hTERT-HA were treated for 2 hours with the GA concentration indicated. The hTERT polypeptides were visualized with anti-Flag or anti-HA antibodies as marked by each blot. (C) Down-regulation of endogenous hTERT by GA. H1299 cells were treated with 0.1 μM GA for the indicated times, and cell lysates were analyzed by immunoprecipitation with anti-hTERT antibody followed by immunoblotting using same antibody probe. Cells were pretreated with 10 μM MG132 for 2 hours, either alone or before treatment with GA. Molecular weight markers are shown in kilodaltons. (D) H1299 cells were treated with 0.1 μM GA for the indicated times, and cell lysates were analyzed for telomerase activity by the TRAP assay. The lane labeled LB corresponds to the negative control (lysis buffer only). ITAS represents the internal telomerase assay standard. (E) Saos-2 cells transfected with Flag-hTERT or hTERT-HA or empty vector were untreated or treated with 0.1 μM GA for 16 hours, and cell lysates were analyzed for telomerase activity using the TRAP assay.
# (§1) FIG. 2. hTERT is ubiquitinated prior to proteasome-mediated degradation. (A) H1299 cells were co-transfected with Flag-hTERT and HA-ubiquitin. Cells were either untreated or treated for 2 hours with 10 μg/ml ALLnN or 0.1 μM GA, or a combination of the two as specified above each lane. Immunoprecipitation was performed with anti-Flag antibody before probing with anti-hTERT or anti-HA antibodies as indicated besides each blot. Molecular weight markers are shown in kilodaltons. (B) H1299 cells co-transfected with Flag-hTERT and HA-ubiquitin were treated for 1 hour with the GA concentration indicated in the presence of 10 μM MG132. Immunoprecipitation was performed with anti-Flag antibody followed by immunoblotting using an anti-HA antibody probe. (C) H1299 cells co-transfected with Flag-hTERT and HA-ubiquitin were either untreated or treated for 2 hours with 10 μg/ml ALLnN as specified above each lane. Proteins were immunoprecipated with anti-Flag antibody followed by immunoblotting using an anti-HA antibody probe.
# The human lung carcinoma cell line H1299 was cultured in RPMI-1640 medium, and the human fibrosarcoma cell line HT1080 was cultured in Dulbecco's modified Eagle's medium supplemented with 10% fetal bovine serum, 100 units/ml penicillin, and 100 μg/ml streptomycin in 5% CO2 at 37° C. The human osteosarcoma cell line Saos-2 was maintained in McCoy's 5A medium containing 15% fetal bovine serum, 100 units/ml penicillin, and 100 μg/ml streptomycin. To establish cell lines stably expressing MKRN1, the MKRN1-V5 construct was transfected into HT1080 cells using Lipofectamine Plus (Invitrogen, Carlsbad, Calif.) according to the manufacturer's instructions. As a control, HT1080 cells were also stably transfected with an empty vector. Multiple independent single clones were isolated and checked for protein expression by immunoblotting with anti-V5 antibody.
# H1299 cells were transiently transfected with the expression vectors indicated in the figure legends using TransFast transfection reagent (Promega, Madison, Wis.) according to the manufacturer's instructions. Cells were lysed with buffer containing 0.5% NP-40, 50 mM Tris-HCl (pH 7.5), 150 mM NaCl, 2 mM phenyl methylsulphonyl fluoride. […]
# [2] = tested on: hTERT (residues 946-1132); test: In vitro ubiquitination assay; assay type: biochemical, human; conditions: purified components, E1, E2, His6-ubiquitin, 30° C., 60 min
# Protocol: (§2) FIG. 4. MKRN1 functions as an E3 ubiquitin-ligase for hTERT in vitro and in vivo. (A) HA-tagged hTERT (residues 946-1132) was incubated MKRN1 or mutants in the presence of E1, E2, His6-ubiquitin (6×His tag disclosed as SEQ ID NO: 7). Samples were resolved by 6% SDS-PAGE and analyzed by immunoblotting with an anti-HA antibody probe. (B) H1299 cells were co-transfected with Flag-hTERT, HA-ubiquitin, MKRN1-V5, and together with either MKRN1^H307E-V5 or MKRN1^Δ^C-V5 as specified. Cells were untreated or treated with 10 μM MG132 for 2 hours. Anti-Flag immunoprecipitates and cell lysates were analyzed by immunoblotting with anti-HA antibody and anti-V5 antibody probes, respectively. (C) H1299 cells co-transfected with Flag-hTERT and HA-ubiquitin, and together with or without MKRN1-V5 as indicated were treated with 10 μM MG132 for the indicated times. Anti-Flag immunoprecipitates and cell lysates were analyzed by immunoblotting with anti-HA antibody and anti-V5 antibody probes, respectively.
# GST-hTERT-HA expressed in bacteria was used as substrate for in vitro ubiquitination assay (Park et al. 2004). The ubiquitination reactions were carried out in buffer (50 mM Tris-HCl, pH 7.5, 2 mM ATP, 2.5 mM MgCl2, 5 mM dithiothreitol, and 0.05% NP-40) containing yeast E1 (0.05 μg), E2 (0.2 μg), and His6-ubiquitin (0.8 μg) (6×His disclosed as SEQ ID NO: 7) in a final volume of 30 μl. […]
# [3] = tested on: hTERT; test: Ubiquitination of hTERT in H1299 cells (immunoprecipitation, anti-HA immunoblot); assay type: cell-based, human; conditions: H1299 Flag-hTERT and HA-ubiquitin, MG132
# Protocol: as §1, §2
# H1299 cells were transiently transfected with the expression vectors indicated in the figure legends using TransFast transfection reagent (Promega, Madison, Wis.) according to the manufacturer's instructions. Cells were lysed with buffer containing 0.5% NP-40, 50 mM Tris-HCl (pH 7.5), 150 mM NaCl, 2 mM phenyl methylsulphonyl fluoride. After centrifugation at 12,000 rpm for 30 min, the supernatants were immunoprecipitated for 2 hours with anti-Flag (Sigma, St. Louis, Mo.) or anti-HA (Santa Cruz biotechnology, Santa Cruz, Calif.) antibodies and then incubated with Sepharose beads conjugated to Protein G (Amersham Biosciences Inc., Piscataway, N.J.). When ubiquitin conjugates of hTERT were detected, immunoprecipitation was performed with lysis buffer containing 0.1% SDS to dissociate its interacting proteins. Immunoblot analyses were performed using anti-hTERT (Santa Cruz biotechnology, Santa Cruz, Calif.), anti-V5 (Invitrogen, Carlsbad, Calif.), anti-HA, and anti-Flag antibodies.
# GA-mediated protein degradation by the proteasome depends on conjugation of ubiquitin to the Hsp90 client protein (Isaacs et al. 2002; Citri et al. 2002). To determine whether hTERT is ubiquitinated in vivo prior to its degradation, H1299 cells co-transfected with Flag-tagged hTERT and HA-tagged ubiquitin constructs were treated with GA, ALLnN (a general proteasome inhibitor) or both. The immunoprecipitated products were evaluated by immunoblotting with selected probes as described in FIG. 2. […]
molecule,measurement,setting,value
CC(C)C[C@H](NC(=O)[C@H]1O[C@@H]1C(=O)O)C(=O)NCCCCN=C(N)N [E-64],effect on GA-induced down-regulation of hTERT,"[1]; H1299 Flag-hTERT, 10 μM pretreatment 2 hours, then GA 4 hours",had no effect
same,"hTERT expression levels, inhibitor alone","[1]; H1299 Flag-hTERT, 10 μM, absence of GA, relative to untreated controls",did not cause a significant change
"COC1=C2C[C@@H](C)C[C@H](OC)[C@H](O)[C@@H](C)/C=C(\C)[C@H](OC(N)=O)[C@@H](OC)/C=C\C=C(/C)C(=O)NC(=CC1=O)C2=O [GA, geldanamycin]",hTERT protein eliminated,"[1]; H1299 transfected with Flag-hTERT, 0.1 μM GA, within 2 hours",over 50%
"MKRN1^H307E: MKRN1 mutant with mutated histidine residue in the RING finger domain (protein, left off: small tags and cut ends) MAEAATPGTTATTSGAGAAAATAAAASPTPIPTVTAPSLGAGGGGGGSDGSGGGWTKQVTCRYFMHGVCKEGDNCRYSHDLSDSPYSVVCKYFQRGYCIYGDRCRYEHSKPLKQEEATATELTTKSSLAASSSLSSIVGPLVEMNTGEAESRNSNFATVGAGSEDWVNAIEFVPGQPYCGRTAPSCTEAPLQGSVTKEESEKEQTAVETKKQLCPYAAVGECRYGENCVYLHGDSCDMCGLQLLHPMDAAQRSQHIKSCIEAHEKDMELSFAVQRSKDMVCGICMEVVYEKANPSERRFGILSNCNETYCLKCIRKWRSAKQFESKIIKSCPECRITSNFVIPSEYWVEEKEEKQKLILKYKEAMSNKACRYFDEGRGSCPFGGNCFYKHAYPDAGREEPQRQKVGTSSRYRAQRRNHFWELIEERENSNPFDNDEEEVVTFELGEMLLMLLAAGGDDELTDSEDEWDLFHDELEDFYDLDL",ubiquitination of C-terminal domain of hTERT,[2],not
same,amount of ubiquitinated hTERT on co-expression,[3],significantly reduced

# From patent US7901906B2, “Targeting of MKRN1 for identifying cancer treatment agents” (University of Central Florida Research Foundation, Inc., priority 2006, dated 2011)
